Data: ChEMBL document CHEMBL5614418, “Discovery of novel dihydropyrrolidone-thiadiazole compound crosstalk between the YycG/F two-component regulatory pathway and cell membrane homeostasis to combat methicillin-resistant Staphylococcus aureus” (Eur J Med Chem, 2024)
The source made the active and inactive calls. The calls are words filed in the database; no cut-off is given here.

Assays:
[1] = tested on: Staphylococcus epidermidis; test: Synergistic antibacterial activity against Staphylococcus epidermidis SE1457 in presence of linezolid; format: functional, organism-based
Staphylococcus aureus [2] = test: Inhibition of biofilm formation in methicillin resistant Staphylococcus aureus YUSA145 at 1/2 MIC incubated for 16 hrs by SEM analysis; format: functional, organism-based
[3] = biological target: T1, Sensor protein kinase WalK (Staphylococcus aureus, UniProt Q9RDT3); test: Inhibition of Staphylococcus aureus YycG expressed in Escherichia coli preincubated for 30 mins followed by ATP addition and measured after 30 mins by kinase-Glo luminescent assay
T1 sequence (Q9RDT3 whole entry): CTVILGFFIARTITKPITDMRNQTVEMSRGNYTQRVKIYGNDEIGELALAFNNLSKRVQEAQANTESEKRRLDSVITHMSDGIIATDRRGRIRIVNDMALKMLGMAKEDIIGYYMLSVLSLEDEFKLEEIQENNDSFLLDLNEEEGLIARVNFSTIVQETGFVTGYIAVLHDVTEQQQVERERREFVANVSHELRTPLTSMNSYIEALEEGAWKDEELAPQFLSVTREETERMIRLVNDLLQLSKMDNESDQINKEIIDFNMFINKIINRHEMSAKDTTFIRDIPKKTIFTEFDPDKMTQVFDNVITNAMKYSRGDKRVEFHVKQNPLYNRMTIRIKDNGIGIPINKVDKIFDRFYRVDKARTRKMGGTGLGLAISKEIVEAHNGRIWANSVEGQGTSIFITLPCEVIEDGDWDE

Staphylococcus aureus [4] = test: Downregulation of arcC1 gene expression level in methicillin sensitive Staphylococcus aureus SA113 at 1/2 MIC by RT-qPCR analysis; format: functional
[5] = tested on: Staphylococcus epidermidis; test: Bactericidal activity against Staphylococcus epidermidis SE1457 assessed as planktonic cells killing by measuring log reduction in bacterial count at 2 to 8 times MIC measured after 24 hrs; format: functional

O=C(C1=C(O)C(=O)N(c2nnc(SCc3ccccc3Cl)s2)C1c1ccccc1O)c1cc2ccccc2o1 (stereo not given)
Activity [1]: inactive
inhibition (Staphylococcus aureus [2]): Active
IC50 [3]: 19.5 µM
Activity (Staphylococcus aureus [4]): Active
log(activity) [5]: 2.7
